Test results from patent US12559474B2, “Triazine derivatives having virus replication inhibitory activity and pharmaceutical composition comprising the same” (priority 2021, dated 2026).
Like-named read-outs stand apart in the source and are kept apart here.

What was measured:
SARS-CoV-2 3CL protease = SARS-CoV-2 3CL protease (Severe acute respiratory syndrome coronavirus 2, UniProt P0DTD1); experiment: biochemical; settings: 50% SARS-CoV-2 3CL protease inhibitory concentration, read-out: IC50
SARS-CoV-2 = experiment: microbe, parasite or virus in culture; format: cell-based; settings: Severe acute respiratory syndrome coronavirus 2, VeroE6/TMPRSS2, 72 h, 50% SARS-CoV-2 infected cell death inhibitory concentration, VeroE6/TMPRSS2 cells, 3 days culture

SMILES	IC50 (SARS-CoV-2 3CL protease; RapidFire MS) [µM]	EC50 (SARS-CoV-2; CellTiter-Glo 2.0) [µM]	IC50 (SARS-CoV-2 3CL protease; given as class symbols) [µM]	EC50 (SARS-CoV-2; class symbols) [µM]
Cn1cnc(Cn2c(=O)nc(N3CCc4ccccc4CC3)n(Cc3cc(F)c(F)c(F)c3)c2=O)n1 [II-0550]	1.1	6.42	–	–
N#Cc1cc(Cn2c(Nc3ccc4c(c3)CCO4)nc(=O)n(-c3cncc(Cl)c3)c2=O)ccc1F [Compound I-0348]	–	–	< 0.1	< 1
Cc1cncc(-n2c(=O)nc(Nc3cc4sc(NCC(F)(F)F)nc4cc3F)n(Cc3ccc(F)c(C#N)c3)c2=O)c1 [II-0244]	–	–	< 0.1	1 to 10
COc1ccc(Nc2nc(=O)n(Cc3cc(-c4ccccc4)c[nH]c3=O)c(=O)n2Cc2cc(F)c(F)c(F)c2)cc1 [Compound I-0318]	0.11	1.36	0.1 to 1	1 to 10
N#Cc1cc(Cn2c(Nc3ccc4c(c3)CCO4)nc(=O)n(-c3cncc(F)c3)c2=O)ccc1F [Compound I-0350]	–	–	< 0.1	< 1
Cn1cnc(Cn2c(=O)nc(Nc3cc4cn(C)nc4cc3Cl)n(Cc3ccc(F)c(C#N)c3)c2=O)n1 [II-0286]	–	–	< 0.1	1 to 10
Cn1cc2cc(Nc3nc(=O)n(-c4cncc(Cl)c4)c(=O)n3Cc3cc(Cl)c(F)cc3F)ccc2n1 [II-0576]	0.017	0.53	–	–
Cn1cnc(Cn2c(=O)nc(Nc3cc4c(N5CCCC5)n(C)nc4cc3Cl)n(Cc3cc(F)c(F)c(F)c3)c2=O)n1 [II-0453]	–	–	< 0.1	1 to 10
COc1ccc(Nc2nc(=O)n(Cc3ncn(C)n3)c(=O)n2Cc2cc(F)c(F)c(F)c2)c(Cl)c1 [Compound I-0346]	–	–	< 0.1	< 1
C[C@H](O)Cn1cc2cc(Nc3nc(=O)n(Cc4ccc[nH]c4=O)c(=O)n3Cc3cc(F)c(F)c(F)c3)c(Cl)cc2n1 [Compound I-0424]	–	–	< 0.1	1 to 10
CNc1nc2ccc(Nc3nc(=O)n(-c4cncc(Cl)c4)c(=O)n3Cc3cc(C#N)ccc3C)cc2s1 [II-0383]	–	–	< 0.1	< 1
Cc1cncc(-n2c(=O)nc(Nc3ccc4nn(C(F)F)cc4c3)n(Cc3ccc(F)c(C#N)c3)c2=O)c1 [II-0320]	–	–	< 0.1	< 1
Cn1cc2cc(Nc3nc(=O)n(-c4cncc(C#N)c4)c(=O)n3Cc3cc(F)c(F)c(F)c3)c(Cl)cc2n1 [II-0491]	–	–	< 0.1	1 to 10
Cn1cnc(Cn2c(=O)nc(Nc3cc4cn(CC(F)F)nc4cc3F)n(Cc3cc(Cl)c(F)cc3F)c2=O)n1 [II-0459]	–	–	< 0.1	1 to 10
O=c1[nH]cccc1Cn1c(=O)nc(Nc2cc3cn(C4CC(F)(F)C4)nc3cc2Cl)n(Cc2cc(F)c(F)c(F)c2)c1=O [Compound I-0470]	–	–	< 0.1	1 to 10
O=c1[nH]cc(Cl)cc1Cn1c(=O)nc(Nc2cc3cn(CCO)nc3cc2Cl)n(Cc2cc(F)c(F)c(F)c2)c1=O [Compound I-0079]	–	–	< 0.1	1 to 10
Cn1cc2cc(Nc3nc(=O)n(-c4cncc(Cl)c4)c(=O)n3Cc3ccc(F)c(C#N)c3)c(F)cc2n1 [II-0525]	0.016	0.533	–	–
CNc1nc2ccc(Nc3nc(=O)n(-c4cncc(C)c4)c(=O)n3Cc3cc(F)c(F)c(C#N)c3)cc2s1 [II-0397]	–	–	< 0.1	< 1
COc1ccc(Nc2nc(=O)n(Cc3cc4ccccc4[nH]c3=O)c(=O)n2Cc2cc(F)c(F)c(F)c2)cc1 [Compound I-0306]	–	–	< 0.1	1 to 10

SMILES	IC50 (SARS-CoV-2 3CL protease; RapidFire MS) [µM]	EC50 (SARS-CoV-2; CellTiter-Glo 2.0) [µM]	IC50 (SARS-CoV-2 3CL protease; given as class symbols) [µM]	EC50 (SARS-CoV-2; class symbols) [µM]
Cc1cnc(Cn2c(=O)nc(Nc3cc4cn(C)nc4cc3Cl)n(Cc3cc(F)c(F)cc3F)c2=O)nc1 [II-0425]	0.26	5.85	–	–
Cc1cncc(-n2c(=O)nc(Nc3cc4cn(C)nc4cc3Cl)n(Cc3cccc(F)c3F)c2=O)c1 [II-0187]	–	–	< 0.1	< 1
Cc1cncc(-n2c(=O)nc(Nc3cc4cn(C)nc4cc3C)n(Cc3ccc(F)c(C#N)c3)c2=O)c1 [Compound I-0385]	–	–	< 0.1	< 1
Cc1cncc(-n2c(=O)nc(Nc3cc4cn(CC(F)F)nc4cc3Cl)n(Cc3cc(F)c(F)c(F)c3)c2=O)c1 [II-0090]	0.016	0.355	–	–
Cc1nc2cc(Cl)c(Nc3nc(=O)n(Cc4ccc[nH]c4=O)c(=O)n3Cc3cc(F)c(F)c(F)c3)cc2n1CC(F)F [Compound I-0444]	0.0051	3.94	< 0.1	1 to 10
O=C1CN=CC=C1Cn1c(=O)nc(Nc2cc3c(cc2Cl)OCCC3)n(Cc2cc(F)c(F)cc2F)c1=O [II-0047]	–	–	< 0.1	< 1
Cc1cncc(-n2c(=O)nc(Nc3cc4cn(C)nc4cc3Cl)n(Cc3cc(F)c(F)cc3C#N)c2=O)c1 [II-0070]	–	–	< 0.1	1 to 10
Cc1cncc(-n2c(=O)nc(Nc3cc4cn(C)nc4cc3Cl)n(Cc3cc(C#N)c(F)cn3)c2=O)c1 [II-0535]	–	–	< 0.1	< 1
CNc1nc2cc(Cl)c(Nc3nc(=O)n(-c4cncc(C)c4)c(=O)n3Cc3ccc(F)c(C#N)c3)cc2s1 [II-0382]	–	–	< 0.1	< 1
COc1ccc(Nc2nc(=O)n(Cc3ccc[nH]c3=O)c(=O)n2Cc2ccc(F)c(C#N)c2)cc1 [Compound I-0253]	–	–	< 0.1	1 to 10
CC(C)n1cc2cc(Nc3nc(=O)n(Cc4cccnc4O)c(=O)n3Cc3cc(F)c(F)c(F)c3)c(Cl)cc2n1 [Compound I-0366]	–	–	< 0.1	1 to 10
Cc1cncc(-n2c(=O)nc(Nc3cc4c(cc3C)OCC4)n(Cc3ccc(F)c(C#N)c3)c2=O)c1 [II-0172]	–	–	< 0.1	< 1
O=c1nc(Nc2cc3cn(CCO)nc3cc2Cl)n(Cc2cc(Cl)c(F)cc2F)c(=O)n1Cc1ncccn1 [II-0238]	–	–	< 0.1	1 to 10
Cc1cncc(-n2c(=O)nc(Nc3cc4cn(CC(F)F)nc4cc3F)n(Cc3cc(F)c(F)c(C#N)c3)c2=O)c1 [II-0506]	–	–	< 0.1	< 1
Cc1cncc(-n2c(=O)nc(Nc3ccc4nn(C)cc4c3)n(Cc3ccc(F)c(C#N)c3)c2=O)c1 [II-0173]	0.015	0.272	–	–
Cc1cncc(-n2c(=O)nc(Nc3cc4cn(C)nc4cc3Cl)n(Cc3ccc(F)cc3Br)c2=O)c1 [II-0220]	–	–	< 0.1	1 to 10
Cn1cnc(Cn2c(=O)nc(Nc3cc4cccnc4cc3Cl)n(Cc3cc(F)c(F)cc3F)c2=O)n1 [II-0039]	–	–	< 0.1	1 to 10
COc1ccc(Nc2nc(=O)n(-c3cncc(C)c3)c(=O)n2-c2cccc(Cl)c2)cc1 [II-0492]	1	–	–	< 1
Cn1cnc(Cn2c(=O)nc(Nc3cc4cn(C)nc4cc3Cl)n(Cc3cc(F)c(F)c(F)c3F)c2=O)n1 [Compound I-0483]	0.0098	0.395	–	–

SMILES	IC50 (SARS-CoV-2 3CL protease; RapidFire MS) [µM]	EC50 (SARS-CoV-2; CellTiter-Glo 2.0) [µM]	IC50 (SARS-CoV-2 3CL protease; given as class symbols) [µM]	EC50 (SARS-CoV-2; class symbols) [µM]
COc1cncc(-n2c(=O)nc(Nc3cc4cn(C)nc4cc3Cl)n(Cc3cc(F)c(F)c(F)c3)c2=O)c1 [II-0495]	–	–	< 0.1	< 1
CCn1cc2cc(Nc3nc(=O)n(-c4cncc(C)c4)c(=O)n3Cc3cc(C#N)ccc3C)c(Cl)cc2n1 [II-0493]	0.0013	0.068	–	–
O=c1[nH]cccc1Cn1c(=O)nc(Nc2ccc(O)cc2Cl)n(Cc2cc(F)c(F)c(F)c2)c1=O [Compound I-0330]	–	–	< 0.1	1 to 10
Cn1cnc(Cn2c(=O)nc(Nc3cc4cn(CC5(NC(=O)OC(C)(C)C)CC5)nc4cc3Cl)n(Cc3cc(Cl)c(F)cc3F)c2=O)n1 [II-0562]	–	–	< 0.1	1 to 10
Cn1cc2cc(Nc3nc(=O)n(-c4cncc(N)c4)c(=O)n3Cc3cc(F)c(F)cc3F)c(Cl)cc2n1 [II-0386]	–	–	< 0.1	1 to 10
COc1ccc(Nc2nc(=O)n(-c3cncc(C4CC4)c3)c(=O)n2Cc2cc(F)c(F)c(F)c2)cc1 [II-0272]	0.18	1.59	–	–
COC(=O)c1cncc(-n2c(=O)nc(Nc3cc4cn(C)nc4cc3Cl)n(Cc3cc(F)c(F)c(F)c3)c2=O)c1 [II-0275]	0.36	7.28	–	–
Cc1cncc(-n2c(=O)nc(Nc3cc4c(cc3F)nc(C)n4C)n(Cc3cc(F)c(F)c(F)c3)c2=O)c1 [II-0360]	–	–	< 0.1	1 to 10
Cn1cnc(Cn2c(=O)nc(Nc3cc4cn(CC(F)F)nc4cc3Cl)n(Cc3cc(F)c(F)c(Cl)c3)c2=O)n1 [II-0572]	0.0056	0.925	–	–
Cc1c2cc(Nc3nc(=O)n(Cc4ncn(C)n4)c(=O)n3Cc3cc(F)c(F)cc3F)c(Cl)cc2nn1C [II-0450]	–	–	< 0.1	1 to 10
Cc1cncc(-n2c(=O)nc(N3CCC(C)(C)CC3)n(Cc3cc(F)c(F)c(F)c3)c2=O)c1 [II-0222]	–	–	< 0.1	< 1
Cn1cc2cc(Nc3nc(=O)n(-c4cnc5ccccn45)c(=O)n3Cc3cc(Cl)c(F)cc3F)c(Cl)cc2n1 [II-0487]	–	–	< 0.1	1 to 10
Cc1cncc(-n2c(=O)nc(Nc3cc4c(cc3Cl)OCC4)n(Cc3cc(F)c(F)c(C#N)c3)c2=O)c1 [II-0131]	–	–	< 0.1	< 1
COc1ccc(Nc2nc(=O)n(Cc3cc(N4CCCC4)c[nH]c3=O)c(=O)n2Cc2cc(F)c(F)c(F)c2)cc1 [II-0014]	2.4	22.1	–	–
Cc1cncc(-n2c(=O)nc(Nc3cc4cn(C)nc4cc3Cl)n(Cc3ccc(F)c(C4CC4)c3)c2=O)c1 [II-0595]	0.53	8.22	–	–
O=c1[nH]cccc1Cn1c(=O)nc(NC2(c3ccccc3F)COC2)n(Cc2cc(F)c(F)c(F)c2)c1=O [II-0484]	3.4	14.2	–	–
Cc1cncc(-n2c(=O)nc(Nc3cc4cn(C)nc4cc3Cl)n(Cc3ccc(F)c(C#N)c3C)c2=O)c1 [II-0020]	–	–	< 0.1	1 to 10
O=c1[nH]cccc1Cn1c(=O)nc(Nc2cc3cn(CCO)nc3cc2Cl)n(Cc2cc(F)c(F)c(F)c2)c1=O [Compound I-0281]	0.0038	4.18	–	–
Cc1nc2cc(Cl)c(Nc3nc(=O)n(Cc4ncn(C)n4)c(=O)n3Cc3cc(F)c(F)c(F)c3)cc2n1C [Compound I-0422]	–	–	< 0.1	1 to 10
